Calls of active or inactive are those of the source. The rule behind the calls is not given here.
Legend:
Rattus norvegicus = organism: Rattus norvegicus; assay: Inhibition of immobilized rat intestinal alpha-glucosidase using 4-nitrophenyl-alpha-D-glucopyranoside as substrate assessed as enzyme activity after 30 mins by spectrophotometry relative to control; design: concentration or dose not given beside the values
[1] = […] inhibition of pig pancreas soluble alpha-amylase using 4-nitrophenyl-alpha-D-maltopentaoside as substrate assessed as enzyme-substrate-inhibitor dissociation constant after 30 mins by double reciprocal plot method; design: species or system Sus scrofa
[2] = […] inhibition of pig pancreas soluble alpha-amylase using 4-nitrophenyl-alpha-D-maltopentaoside as substrate assessed as enzyme-inhibitor dissociation constant after 30 mins by double reciprocal plot method; design: species or system Sus scrofa
Sus scrofa = organism: Sus scrofa; assay: Mixed-type inhibition of pig pancreas soluble alpha-amylase using 4-nitrophenyl-alpha-D-maltopentaoside as substrate assessed as formation of inactive enzyme-inhibitor complex after 30 mins by spectrophotometry
[3] = Inhibition of pig pancreas soluble alpha-amylase using 4-nitrophenyl-alpha-D-maltopentaoside as substrate after 30 mins by spectrophotometry; design: species or system Sus scrofa

| SMILES | Activity (Rattus norvegicus) [%] | Ki [1] [µM] | Ki [2] [µM] | inhibition (Sus scrofa) | IC50 [3] [µM] |
| --- | --- | --- | --- | --- | --- |
| OC[C@@H](Cc1cccc(O)c1)[C@@H](CO)Cc1cccc(O)c1 [(+)-ENTERODIOL] | 69.9 | 40.3 | 94.1 | Active | 8.6 |
| COc1cc(C[C@@H](CO)[C@H](CO)Cc2ccc(O)c(OC)c2)ccc1O [(+)-SECOISOLARICIRESINOL] | 72.4 |  |  |  | 9.5 |

Other lines, results leading:

| Activity (Rattus norvegicus) [%] | Ki [1] [µM] | Ki [2] [µM] | inhibition (Sus scrofa) | IC50 [3] [µM] | SMILES |
| --- | --- | --- | --- | --- | --- |
| 34.4 |  |  |  |  | C[C@H]1O[C@H](O[C@H]2[C@H](O)[C@@H](O)[C@@H](O[C@H]3[C@H](O)[C@@H](O)C(O)O[C@@H]3CO)O[C@@H]2CO)[C@H](O)[C@@H](O)[C@@H]1N[C@H]1C=C(CO)[C@@H](O)[C@H](O)[C@H]1O (some centres not stated) |
| 73.9 |  |  |  | 10.9 | O=C1OC[C@@H](Cc2cccc(O)c2)[C@@H]1Cc1cccc(O)c1 [(+)-ENTEROLACTONE] |
| 74.3 |  |  |  | 15.7 | COc1cc(C[C@H](CO[C@@H]2O[C@H](CO)[C@@H](O)[C@H](O)[C@H]2O)[C@@H](CO[C@@H]2O[C@H](CO)[C@@H](O)[C@H](O)[C@H]2O)Cc2ccc(O)c(OC)c2)ccc1O [(+)-SECOISOLARICIRESINOLDIGLUCOSIDE] |
